Assay [1] addresses T1, Lp-PLA2 (rabbit serum as the source of enzyme) (Oryctolagus cuniculus, UniProt G1SE06).
T1 construct: Rabbit Serum as the Source of Enzyme; from tissue; host or cells: rabbit serum
T1 sequence (G1SE06 22-423): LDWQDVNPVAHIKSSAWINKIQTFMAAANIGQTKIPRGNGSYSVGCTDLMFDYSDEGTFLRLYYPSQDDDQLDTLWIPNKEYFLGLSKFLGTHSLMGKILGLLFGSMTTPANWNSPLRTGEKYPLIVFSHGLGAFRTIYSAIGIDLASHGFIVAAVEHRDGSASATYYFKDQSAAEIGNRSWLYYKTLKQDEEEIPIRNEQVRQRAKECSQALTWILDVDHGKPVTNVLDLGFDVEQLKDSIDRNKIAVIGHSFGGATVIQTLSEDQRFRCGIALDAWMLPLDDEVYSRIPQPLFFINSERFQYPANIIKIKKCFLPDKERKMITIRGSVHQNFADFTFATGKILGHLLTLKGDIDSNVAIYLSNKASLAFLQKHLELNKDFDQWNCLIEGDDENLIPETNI
Put plainly: In vitro inhibitory activity on Lp-PLA2, rabbit serum as the source of enzyme (2-thio-PAF/DTNB). The format is biochemical. The note with it: read-out: Inhibitory ratio, % on Lp-PLA2 (rabbit serum as the source of enzyme); for inhibition at 0.01 µM: 10 nM compound, — = no inhibitory activity; for inhibition at 0.1 µM: 100 nM compound; for inhibition at 1 µM: 1 μM compound. The method, then:
(§1) 0.1M Tris-HCl, 1 mM EGTA, PH 7.2
(§2) Anhydrous ethanol was used as solvent to make a 25 mg/ml mother liquor. The solution was aliquoted, stored at −80° C. and diluted 900 times before use (about 50 μM of concentration)
(§3) 3) DTNB (5,5′-dithio-bis-(2-nitrobenzoic acid), Sigma, Lot D8130)
(§4) The solution was prepared just before use.
(§5) 4) Compound was dissolved in DMSO to a suitable concentration.
(§6) Lp-PLA2 activity was determined by using 2-thio-PAF as substrate. The thiol group produced upon the hydrolysis of 2-thio-PAF can react with DTNB to generate a yellow substance. The optical density at 414 nm can be detected to reflect Lp-PLA2 activity.
1.1 Determination of the Inhibitory Activity of the Compounds on Lp-PLA2 (Rabbit Serum as the Source of Enzyme) (In Vitro)
1) The corresponding reagents were added according to Table 1 and mixed uniformly by shaking.
(§7) 2) 10 μL of DTNB was added to each well.
(§8) 3) 150 μL of 2-thio-PAF was added to each well and shaken for 15 s on a microplate reader to mix the liquid in the well uniformly.

In assay [2] the test system is Lp-PLA2 (rat serum as the source of enzyme). In words: In vitro inhibitory activity on Lp-PLA2, rat serum as the source of enzyme (2-thio-PAF/DTNB). The format is biochemical. Set-up: key: “—” indicates no inhibitory activity. The method, then: as §1, §2, §3, §4, §5, §6
1.3 Determination of the Inhibitory Activity of the Compounds on Lp-PLA2 (Rat Serum as the Source of Enzyme (In Vitro)
1) The corresponding reagents were added according to Table 5 and mixed uniformly by shaking.
as §7, §8

Assay [3] deals with T2, Lp-PLA2 (human recombinant enzyme as the source of enzyme) (Homo sapiens, UniProt Q13093).
T2 sequence (Q13093 22-441): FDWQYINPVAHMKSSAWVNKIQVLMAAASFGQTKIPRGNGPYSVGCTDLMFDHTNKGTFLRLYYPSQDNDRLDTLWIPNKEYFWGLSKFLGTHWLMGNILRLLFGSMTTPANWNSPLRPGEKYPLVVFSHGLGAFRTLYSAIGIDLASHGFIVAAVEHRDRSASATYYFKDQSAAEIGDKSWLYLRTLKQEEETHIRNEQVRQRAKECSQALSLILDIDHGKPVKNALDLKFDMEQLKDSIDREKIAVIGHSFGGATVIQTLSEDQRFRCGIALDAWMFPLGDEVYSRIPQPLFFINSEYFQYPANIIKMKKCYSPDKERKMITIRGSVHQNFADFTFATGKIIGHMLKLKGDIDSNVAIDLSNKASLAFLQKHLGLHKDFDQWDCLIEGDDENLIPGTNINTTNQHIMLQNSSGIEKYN
In words: In vitro inhibitory activity on Lp-PLA2, human recombinant enzyme (2-thio-PAF/DTNB). The format is biochemical. The conditions noted are these: read-out: inhibitory ratio, % on Lp-PLA2 (human recombinant enzyme as the source of enzyme); for inhibition at 0.01 µM: 10 nM compound; for inhibition at 0.1 µM: 100 nM compound. The method, then: as §1, §2, §3, §4, §5, §6
1.2 Determination of the Inhibitory Activity of the Compounds on Lp-PLA2 (Human Recombinant Enzyme as the Source of Enzyme) (In Vitro)
1) The corresponding reagents were added according to Table 3 and mixed uniformly by shaking.
as §7, §8

Assay [4] relates to STZ-induced diabetic rats. In words: Retinal thickness of STZ-induced diabetic rats, long-term administration. In kind it is in vivo, rat. The note with it: 25 mg/kg/day oral, 4 weeks. From the text:
Test compound: […] Positive control: Darapladib, dissolved in ultrapure water. […] All SD rats were preconditioned for 3-5 days. […] The diabetic model was established when the blood glucose of the rats was more than 10 mmol/L. […] The rats were administrated once a day. […] The eyeballs of the rats were removed, frozen and sectioned and the thickness of each slice was 8 μm. The slice was stained with conventional hematoxylin/eosin and photographed with a 400-fold optical microscope (Eclipse 80i, Nikon). The thickness of the retina was analyzed using the software Image-Pro plus 6.0. Five points were selected in each photo. Statistical analysis was performed with the EXCEL 2007 software. […] The experiment results were evaluated by Student T test.

Assay [5] concerns spontaneous type 2 diabetes ZDF rats. Put plainly: Long-term administration in spontaneous type 2 diabetes ZDF rats (blood glucose and other biochemical indexes). In kind it is in vivo, rat. The source says: Positive control: metformin, produced by China-US Shanghai Squibb Pharmaceutical Co., Ltd.; dissolved in ultra-pure water.
Varieties: ZDF rats, ZL rats; Grade: SPF grade; Age: 56-62 days; Gender: Male; Source: Beijing Weitong Lihua Experimental Animal Co., Ltd.
The kits for total cholesterol (TC), triglyceride (TG), high density lipoprotein cholesterol (HDL-C), low density lipoprotein cholesterol (LDL-C), blood glucose (GLU), aspartate transferase (AST), alanine aminotransferase (ALT), alkaline phosphatase (ALP), urea (BUN), creatinine (CREA) and the like were purchased from Shanghai Shenneng Desai Diagnostic Technology Co., Ltd. The reagents for glycosylated hemoglobin (HbAlc) assay was purchased from Trinity Biotech Corporation. Insulin ELISA Assay Kit was purchased from BertinPharma Corporation. Urine microalbumin (mALB) and other ELISA kits were purchased from Nanjing Jiancheng Bioengineering Institute.
Two ZDF rat groups were orally administered with the compound of example 11 and metformin, respectively. […] The dose of metformin was 300 mg/kg/day. Both were administered for a period of 6 weeks.
Thirty male ZDF rats (56˜62 days old) were fed with Purina #5008 feed (purchased from Nongbiao Purina Feed Co., Ltd.) and the other 6 ZL rats were fed with normal diet as normal control. After fed for 2 weeks, the empty body weights of the fasting rats (fasting for 10 h, free to drink water) were weighed. 0.3 mL blood was collected through tail vein and placed in EDTA anticoagulant tube for the determination of glycosylated hemoglobin (HbAlc). Another 0.5 mL blood was collected and centrifugated at 3000 rpm for 10 min to separate serum which then was determined by automatic biochemical analyzer Model 7020. The serum was separated and then blood glucose and blood lipid (GLU, TC, TG) and hepatorenal function (ALT, AST, ALP, BUN, CREA) were determined. The ZDF rats with blood glucose far from the mean value or having other abnormal indexes were removed and 18 ZDF rats with GLU close to the mean value were selected.
Rats in each group were given the corresponding drug or solvent by gavage through oral once a day in the morning for 6 continuous weeks. Another 6 ZL rats were taken as normal control group.
Every 2 weeks the rats were fasted but allowed free drinking for 10 h, the empty body weight was weighed and 0.5 mL blood was collected through the tail vein to determine the blood glucose levels. The levels of insulin, glycosylated hemoglobin and triglyceride were measured at the 4th week of administration and at the end of the administration. The levels of low density lipoprotein and high density lipoprotein were measured at the 6th week of administration. The urine samples were collected once before the end of the administration and 24 h (11:00 am to 11:00 am the next day) urine samples were collected to detect urinary albumin content in urine.
Statistical analysis was performed with EXCEL 2007 software.

The mark [6] stands for this setting: 10 nM compound, — = no inhibitory activity.
Where [7] appears, read: oral 25 then 10 mg/kg/day, 4 weeks after the administration.
Setting [8] is: oral 25 then 10 mg/kg/day, 6 weeks after the administration.

On to `Cn1c(N2CCOCC2)cc(OCCc2cc(F)c(Oc3ccc(Cl)c(C(F)(F)F)c3)c(F)c2)nc1=O` [Example 5, 4-(4-(4-chloro-3-(trifluoromethyl)phenoxy)-3,5-difluorophenethyloxy)-1-methyl-6-morpholinopyrimidin-2(1H)-one], for which, in assay [1], the inhibition at 0.01 µM was 49.2%, the inhibition at 0.1 µM was 93.8% and the inhibition at 1 µM came out at 97.3%. Moreover, the “inhibitory ratio, % on Lp-PLA2 (rat serum as the source of enzyme)” value (“inhibitory ratio, % on Lp-PLA2” for short) in assay [2] (setting [6]) is 18.21%. In addition, the “inhibitory ratio, % on Lp-PLA2” value in assay [2] (100 nM compound) came out at 73.23%. Also, in assay [3], the inhibition at 0.01 µM was about 90% and the inhibition at 0.1 µM turned out to be 100%.
Take `CN(C)c1cc(OCc2cc(F)c(Oc3ccc(Cl)c(C(F)(F)F)c3)c(F)c2)nc(=O)n1C` [Example 11]: in assay [4], the “retinal thickness compared with the model control group” value is reported as “significantly decreased”. In assay [5] (oral 25 mg/kg/day first 4 days then 10 mg/kg/day, 2 weeks, 4 weeks and 6 weeks after administration), the “blood glucose level compared with the model control group” value is “significantly decreased”. Further, in assay [5] (setting [7]), the “insulin level compared with the model control group” value was “significantly increased” and the “triglyceride level compared with the model control group” value is “significantly decreased”. Also, in assay [5] (oral 25 then 10 mg/kg/day, 4 weeks and 6 weeks after the administration), the “glycosylated hemoglobin levels compared to the model control group” value was “significantly reduced”. The “insulin level compared with the model control group” value in assay [5] (oral 25 then 10 mg/kg/day, 6 weeks) is given as “remarkably increased”. In assay [5] (setting [8]), the “high-density lipoprotein level compared with the model control group” value is recorded as “no significant change” and the “level of low-density lipoprotein compared with the model control group” value is “significantly reduced”. Besides, the “urinary albumin levels in the urine compared with the model control group” value in assay [5] (oral 25 then 10 mg/kg/day, 24 h urine, 6 weeks after the administration) is recorded as “significantly reduced”.
For `Cn1c(N2CCC(F)(F)C2)cc(OCc2cc(F)c(Oc3ccc(Cl)c(C(F)(F)F)c3)c(F)c2)nc1=O` [Example 16], the values for the inhibition at 0.01 µM in assay [1] and in assay [3] were 13.2% and 55.3%, respectively. In addition, the inhibition at 0.1 µM in assay [1] was 77.4%; in assay [3], 92.4%. In assay [1], the inhibition at 1 µM came to 96.4%. The “inhibitory ratio, % on Lp-PLA2” value in assay [2] (setting [6]) was found to be 6.84%; in assay [2] (100 nM compound), 50.35%.
Turning to `Cn1c(-c2ccccc2)cc(OCc2cc(F)c(Oc3ccc(Cl)c(C(F)(F)F)c3)c(F)c2)nc1=O` [Example 19, 4-((4-(4-chloro-3-(trifluoromethyl)phenoxy)-3,5-difluorobenzyl)oxy)-1-methyl-6-phenylpyrimidin-2(1H)-one], the inhibition at 0.1 µM is 59.7% in assay [1] and 89.7% in assay [3]. Also, the “inhibitory ratio, % on Lp-PLA2” value is reported as “—” in assay [2] (setting [6]) and 18.06% in assay [2] (100 nM compound). Moreover, the inhibition at 0.01 µM in assay [3] was found to be 53.6%.
Consider `COc1ccc(-c2cc(OCc3cc(F)c(Oc4ccc(Cl)c(C(F)(F)F)c4)c(F)c3)nc(=O)n2C)cc1` [Example 20, 4-((4-(4-chloro-3-(trifluoromethyl)phenoxy)-3,5-difluorobenzyl)oxy)-6-(4-methoxyphenyl)-1-methylpyrimidin-2(1H)-one], for which the inhibition at 0.1 µM in assay [1] came out at 54.2%; in assay [3], 90.4%. Further, the “inhibitory ratio, % on Lp-PLA2” value in assay [2] (setting [6]) is on record as “—”; in assay [2] (100 nM compound), 43.27%. Also, the inhibition at 0.01 µM in assay [3] worked out at 46.9%.
Turning to `Cn1c(N2CCOCC2)cc(OCc2cc(F)c(Oc3ccc(C(F)(F)F)nc3)c(F)c2)nc1=O` [Example 26], in assay [1], the inhibition at 0.1 µM was 57.3% and the inhibition at 1 µM was determined as 93.5%.
Turning to `Cn1c(N2CCOCC2)cc(OCc2ccc(Oc3ccc(Cl)c(C(F)(F)F)c3)c(C#N)c2)nc1=O` [Example 27, 2-(4-chloro-3-(trifluoromethyl)phenoxy)-5-((1-methyl-6-morpholinyl-2-oxo-1,2-dihydropyrimidin-4-oxy)methyl)benzonitrile], in assay [4], the “retinal thickness compared with the model control group” value was “significantly decreased”.
Turning to `Cn1c(N2CCOCC2)cc(OCc2cc(F)c(Oc3ccnc(C(F)(F)F)c3)c(F)c2)nc1=O` [Example 29], in assay [1], the inhibition at 0.01 µM was 22.6%, the inhibition at 0.1 µM was 83.5% and the inhibition at 1 µM was determined as 97.1%.
As for `CCn1c(N2CCOCC2)cc(OCc2cc(F)c(Oc3ccc(Cl)c(C(F)(F)F)c3)c(F)c2)nc1=O` [Example 34, 4-(4-(4-chloro-3-(trifluoromethyl)phenoxy-3,5-difluorobenzyl)oxy)-1-ethyl-6-morpholinopyrimidin-2(1H)-one], in assay [1], the inhibition at 0.1 µM is 54.1% and the inhibition at 1 µM is 95.6%. In assay [3], the inhibition at 0.01 µM worked out at 53.9% and the inhibition at 0.1 µM worked out at 95.6%.
With `CCN(CC)CCN(Cc1ccc(-c2ccc(C(F)(F)F)cc2)cc1)C(=O)Cn1c(SCc2ccc(F)cc2)nc(=O)c2c1CCC2` [darapladib, reference compound], the “retinal thickness compared with the model control group” value in assay [4] was “significantly decreased”.

The record behind these values is patent US10280146B2, “Pyrimidone compounds used as Lp-PLA2 inhibitors and pharmaceutical compositions thereof” (Shanghai Institute of Materia Medica, Chinese Academy of …, priority 2014, dated 2019).
